Reference: ChEMBL document CHEMBL1135032, “Binding of aminoglycoside antibiotics with modified A-site 16S rRNA construct containing non-nucleotide linkers” (Bioorg Med Chem Lett, 2002)

How the values were obtained:
Type in all cases: nucleic-acid assay
Nucleic Acid [1] = assay: Tested for binding affinity against RNA construct C; n.b. means no observable binding
Nucleic Acid [2] = assay: Tested for binding affinity against RNA construct D; n.b. means no observable binding
Nucleic Acid [3] = assay: Tested for binding affinity against RNA construct A; n.b. means no observable binding
Nucleic Acid [4] = assay: Tested for binding affinity against RNA construct E; n.b. means no observable binding
Nucleic Acid [5] = assay: Tested for binding affinity against RNA construct B; n.b. means no observable binding
Nucleic Acid [6] = assay: Tested for binding affinity against RNA construct D
Nucleic Acid [7] = assay: Tested for binding affinity against RNA construct E
Nucleic Acid [8] = assay: Tested for binding affinity against RNA construct A
Nucleic Acid [9] = assay: Tested for binding affinity against RNA construct C
Nucleic Acid [10] = assay: Tested for binding affinity against RNA construct B

With `CN[C@@H]1[C@H](O[C@H]2[C@H](O[C@H]3[C@H](O)[C@@H](O)[C@H](N=C(N)N)[C@@H](O)[C@@H]3N=C(N)N)O[C@@H](C)[C@]2(O)C=O)O[C@@H](CO)[C@H](O)[C@H]1O` [STREPTOMYCIN] the Kd (Nucleic Acid [1]) was “No binding”, the Kd (Nucleic Acid [2]) was “No binding” and the Kd (Nucleic Acid [3]) was “No binding”. The Kd (Nucleic Acid [4]) was “No binding” and the Kd (Nucleic Acid [5]) was “No binding”.

For `NC[C@@H]1O[C@H](O[C@H]2[C@@H](O)[C@H](O[C@@H]3[C@@H](O)[C@H](N)C[C@H](N)[C@H]3O[C@H]3O[C@H](CN)[C@@H](O)[C@H](O)[C@H]3N)O[C@@H]2CO)[C@H](N)[C@@H](O)[C@@H]1O` [FRAMYCETIN], the Kd (Nucleic Acid [6]) was 470 nM, the Kd (Nucleic Acid [7]) was 91 nM and the Kd (Nucleic Acid [8]) was 410 nM. It also gave a Kd (Nucleic Acid [9]) of 4340 nM.

`NC[C@H]1O[C@H](O[C@H]2[C@H](O)[C@@H](O[C@H]3O[C@H](CO)[C@@H](O)[C@H](N)[C@H]3O)[C@H](N)C[C@@H]2N)[C@H](N)[C@@H](O)[C@@H]1O` [BEKANAMYCIN] was tested, and the Kd (Nucleic Acid [1]) was “No binding”, the Kd (Nucleic Acid [6]) was 2750 nM and the Kd (Nucleic Acid [7]) was 910 nM. For the same compound, the Kd (Nucleic Acid [8]) was 2950 nM and the Kd (Nucleic Acid [10]) was 2900 nM.

For `NC[C@H]1O[C@H](O[C@H]2[C@H](O)[C@@H](O[C@H]3O[C@H](CO)[C@@H](O)[C@H](N)[C@H]3O)[C@H](N)C[C@@H]2N)[C@H](N)C[C@@H]1O` [TOBRAMYCIN], the Kd (Nucleic Acid [1]) was “No binding”, the Kd (Nucleic Acid [7]) was 680 nM and the Kd (Nucleic Acid [8]) was 2070 nM. The Kd (Nucleic Acid [10]) was 2040 nM.

Compound `NC[C@@H]1O[C@H](O[C@H]2[C@@H](O)[C@H](O[C@@H]3[C@@H](O)[C@H](N)C[C@H](N)[C@H]3O[C@H]3O[C@H](CO)[C@@H](O)[C@H](O)[C@H]3N)O[C@@H]2CO)[C@H](N)[C@@H](O)[C@@H]1O` [PAROMOMYCIN] has a Kd (Nucleic Acid [6]) of 1700 nM, a Kd (Nucleic Acid [7]) of 400 nM and a Kd (Nucleic Acid [8]) of 1640 nM. The Kd (Nucleic Acid [9]) was 5330 nM and the Kd (Nucleic Acid [10]) was 1580 nM.
